Test system: mosquitos
Test: Insecticidal effect (knock-down effect) by the open cylinder method
Format: in vivo
Conditions: for Insecticidal effect 15d (relative effectiveness ratio): fifteenth day; for Insecticidal effect 1d (relative effectiveness ratio): first day; for Insecticidal effect 30d (relative effectiveness ratio): thirtieth day
From the text: An insecticide was impregnated in various kinds of raw materials for preparing insecticide impregnated materials. The resulting insecticide-impregnated materials were housed in their respective insecticide cartridges of Example 1 and Comparative Example 1, followed by mounting each of them on an insecticide transpiration apparatus of the present invention. Subsequently, each of them was subjected to a measurement for estimating the transpiring amount of the chemical and a test for estimating insecticide effects on the first, fifteenth and thirtieth days while using the apparatus for twelve hours a day.
A test of insecticidal effect (knock-down effect) was performed by the open cylinder method according to the following procedures.
Procedures for Estimating the Insecticidal Effect of an Insecticidal Compound
Two plastic cylinders of 20 cm in inside diameter and 43 cm in height are piled up. A cylinder of 20 cm both in inside diameter and height is partitioned vertically with a wire net of 16 mesh (the place where the mosquitos are put in), and is placed thereon. A cylinder of 20 cm in inside diameter and height is further placed thereon. This set consisting of the four cylinders is placed on a stand, and an insecticide transpiration apparatus is placed in the middle of the stand to transpire the insecticidal ingredient in the chemical-impregnated material to be examined. Then about 20 mosquitos to be tested are released in the upper stair of the cylinder set and the number of mosquitos knocked down is observed with the time elapsed.
Furthermore, the insecticidal effect was indicated as a relative effectiveness ratio in which an initial turning-over effect obtained by evaporation from a mosquito-repellent mat containing dl, d-cis, trans-allethrin (Pynamin Forte) on condition that a radiator plate of a heating unit is at a temperature of 160° C. The above test was repeated with various kinds of insecticides and the various amounts thereof, various chemical-impregnated materials and various particle sizes thereof, various free-volumes of the insecticide cartridge, various rotational speeds of the motor, respectively.

[1] = cartridge of Comparative Example 1, relative to Pynamin Forte mat
[2] = cartridge of Example 1, relative to Pynamin Forte mat
[3] = cartridge of Example 1, relative to initial effect of dl, d-cis, trans-allethrin (Pynamin Forte) mat at 160° C.

Row | SMILES | Insecticidal effect 15d (relative effectiveness ratio) [1] | Insecticidal effect 1d (relative effectiveness ratio) [1] | Insecticidal effect 30d (relative effectiveness ratio) [1] | Insecticidal effect 15d (relative effectiveness ratio) [2] | Insecticidal effect 1d (relative effectiveness ratio) [3] | Insecticidal effect 30d (relative effectiveness ratio) [2]
1 | CC=CC1C(C(=O)OCc2c(F)c(F)cc(F)c2F)C1(C)C (stereo not drawn) [Compound B, 2,3,5,6-tetrafluorobenzyl-2,2-dimethyl-3-(1-propenyl) cyclopropane carboxylate] | 2.1 | 2.2 | 2.0 | 2.7 | 2.8 | 2.7
2 | CC(C)=CC1C(C(=O)OCc2c(F)c(F)cc(F)c2F)C1(C)C (stereo not drawn) [Compound A, 2,3,5,6-tetrafluorobenzyl-chrysanthemate] | 3.3 | 3.4 | 3.3 | 3.8 | 3.9 | 3.8
3 | CC(C)=CC1C(C(=O)OCc2c(F)c(F)c(C)c(F)c2F)C1(C)C (stereo not drawn) [Compound C, 4-methyl-2,3,5,6-tetrafluorobenzyl-chrysanthemate] | 1.7 | 1.8 | 1.6 | 2.2 | 2.3 | 2.2
4 | C#CCc1c(F)c(F)c(COC(=O)C2C(C)(C)C2(C)C)c(F)c1F [Compound K, 4-propargyl-2,3,5,6-tetrafluorobenzyl-2,2,3,3-tetramethyl cyclopropane carboxylate] | 2.2 | 2.3 | 2.1 | 2.7 | 2.8 | 2.7
5 | CC=CC1C(C(=O)OCc2c(F)c(F)c(COC)c(F)c2F)C1(C)C (stereo not drawn) [Compound G, 4-methoxymethyl-2,3,5,6-tetrafluorobenzyl-2,2-dimethyl-3-(1-propenyl)cyclopropane carboxylate] | 2.8 | 2.9 | 2.8 | 3.4 | 3.4 | 3.4
6 | CC=CC1C(C(=O)OCc2c(F)c(F)c(C)c(F)c2F)C1(C)C (stereo not drawn) [Compound D, 4-methyl-2,3,5,6-tetrafluorobenzyl-2,2-dimethyl-3-(1-propenyl)cyclopropane carboxylate] | 2.7 | 2.8 | 2.6 | 3.2 | 3.2 | 3.1
7 | C#CCc1c(F)c(F)c(COC(=O)C2C(C=CC)C2(C)C)c(F)c1F (stereo not drawn) [Compound I, 4-propargyl-2,3,5,6-tetrafluorobenzyl-3-(1-propenyl)-2,2-dimethylcyclopropane carboxylate] | 2.5 | 2.6 | 2.4 | 2.9 | 3.0 | 2.9
8 | COCc1c(F)c(F)c(COC(=O)C2C(C=C(C)C)C2(C)C)c(F)c1F (stereo not drawn) [Compound F, 4-methoxymethyl-2,3,5,6-tetrafluorobenzyl-chrysanthemate] | 1.7 | 1.9 | 1.5 | 2.5 | 2.6 | 2.5
9 | Cc1c(F)c(F)c(COC(=O)C2C(C=C(F)F)C2(C)C)c(F)c1F (stereo not drawn) [Compound E, 4-methyl-2,3,5,6-tetrafluorobenzyl-2,2-dimethyl-3-(2,2-difluorovinyl)cyclopropane carboxylate] | 2.3 | 2.4 | 2.3 | 2.8 | 2.9 | 2.8
10 | COCc1c(F)c(F)c(COC(=O)C2C(C)(C)C2(C)C)c(F)c1F [Compound J, 4-methoxymethyl-2,3,5,6-tetrafluorobenzyl-2,2,3,3-tetramethylcyclopropane carboxylate] | 2.4 | 2.5 | 2.4 | 2.8 | 2.9 | 2.8
11 | CC1(C)C(C=C(Cl)C(F)(F)F)C1C(=O)OCc1c(F)c(F)c(F)c(F)c1F (stereo not drawn) [Compound H, 2,3,4,5,6-pentafluorobenzyl-2,2-dimethyl-3-(2-chloro-2-trifluoromethylvinyl)cyclopropane carboxylate] | 1.7 | 1.9 | 1.7 | 2.3 | 2.4 | 2.3
